Test results from ChEMBL document CHEMBL1152094, “Res-701-1, synthesis and a reevaluation of its effects on the endothelin receptors” (Bioorg Med Chem Lett, 1995).
Starred links: 1 amine or outer side, 2 acyl side, 3 side chain; linkers in the order of their positions; H or OH if unused. Non-standard residues stand in square brackets, D forms with d. Residues, ends and D or L forms follow the SMILES beside them. X1 = O=C([C@@H](N[*:1])C1c2ccccc2CCc2ccccc21)[*:2]

Experiments:
[1] = target: T1, Endothelin-1 receptor (Homo sapiens, UniProt P25101); experiment: Binding affinity in LtK cells stably transfected with human endothelin A (ETA) receptor; type: cell-based
T1 sequence (P25101 whole entry): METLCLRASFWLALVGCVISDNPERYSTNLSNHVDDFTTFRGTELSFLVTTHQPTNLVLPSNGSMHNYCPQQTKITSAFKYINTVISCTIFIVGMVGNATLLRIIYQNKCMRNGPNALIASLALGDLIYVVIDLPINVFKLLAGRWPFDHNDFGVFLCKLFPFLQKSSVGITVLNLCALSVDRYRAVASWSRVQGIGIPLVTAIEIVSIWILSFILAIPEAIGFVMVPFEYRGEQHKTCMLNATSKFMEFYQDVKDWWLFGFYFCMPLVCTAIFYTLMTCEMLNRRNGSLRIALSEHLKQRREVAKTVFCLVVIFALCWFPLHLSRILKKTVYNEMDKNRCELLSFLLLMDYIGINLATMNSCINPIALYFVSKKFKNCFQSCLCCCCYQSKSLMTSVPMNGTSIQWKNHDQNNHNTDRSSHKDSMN

[2] = target: T2, Endothelin receptor type B (Homo sapiens, UniProt P24530); experiment: Binding affinity in Chinese hamster ovary (CHO) cells stably transfected with human endothelin B (ETB) receptor; type: cell-based
T2 sequence (P24530 whole entry): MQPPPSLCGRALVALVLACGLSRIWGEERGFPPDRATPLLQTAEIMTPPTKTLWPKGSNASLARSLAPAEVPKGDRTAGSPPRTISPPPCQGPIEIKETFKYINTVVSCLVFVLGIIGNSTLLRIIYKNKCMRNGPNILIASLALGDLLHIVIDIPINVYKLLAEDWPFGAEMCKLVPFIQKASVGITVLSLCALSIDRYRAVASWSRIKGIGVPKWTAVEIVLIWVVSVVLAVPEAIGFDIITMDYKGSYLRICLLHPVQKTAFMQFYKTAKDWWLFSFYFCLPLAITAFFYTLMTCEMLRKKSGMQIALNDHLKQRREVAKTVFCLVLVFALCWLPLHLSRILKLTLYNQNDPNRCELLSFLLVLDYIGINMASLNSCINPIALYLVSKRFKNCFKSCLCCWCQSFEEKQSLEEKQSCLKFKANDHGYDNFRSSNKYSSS

Row | SMILES | IC50 [1] [µM] | IC50 [2] [µM]
1 | NC(=O)C[C@H](NC(=O)[C@H](Cc1ccccc1)NC(=O)[C@H](Cc1ccccc1)NC(=O)[C@@H](N)Cc1c[nH]c2ccccc12)C(=O)N[C@@H](Cc1ccc(O)cc1)C(=O)N[C@@H](Cc1ccc(O)cc1)C(=O)N[C@@H](Cc1c[nH]c2ccccc12)C(=O)O (H-WFFNYYW-OH) | 2.4 | 15
2 | C[C@H](NC(=O)[C@@H](NC(=O)CNC(=O)[C@H](Cc1c[nH]cn1)NC(=O)[C@H](Cc1c[nH]c2ccccc12)NC(=O)[C@H](CC(N)=O)NC(=O)CN)[C@@H](C)O)C(=O)N1CCC[C@H]1C(=O)N[C@@H](CC(=O)O)C(=O)N[C@@H](Cc1c[nH]c2ccccc12)C(=O)N[C@@H](Cc1ccccc1)C(=O)N[C@@H](Cc1ccccc1)C(=O)N[C@@H](CC(N)=O)C(=O)N[C@@H](Cc1ccc(O)cc1)C(=O)N[C@@H](Cc1ccc(O)cc1)C(=O)N[C@@H](Cc1c[nH]c2ccccc12)C(=O)O | > 2.5 | > 2.5
3 | C[C@@H]1NC(=O)[C@H]([C@@H](C)O)NC(=O)CNC(=O)[C@H](Cc2c[nH]cn2)NC(=O)[C@H](Cc2c[nH]c3ccccc23)NC(=O)[C@H](CC(N)=O)NC(=O)CNC(=O)C[C@@H](C(=O)N[C@@H](Cc2c[nH]c3ccccc23)C(=O)N[C@@H](Cc2ccccc2)C(=O)N[C@@H](Cc2ccccc2)C(=O)N[C@@H](CC(N)=O)C(=O)N[C@@H](Cc2ccc(O)cc2)C(=O)N[C@@H](Cc2ccc(O)cc2)C(=O)N[C@@H](Cc2c[nH]c3ccccc23)C(=O)O)NC(=O)[C@@H]2CCCN2C1=O (stereo in doubt; 2) | 7.8 | 6.5
4 | C[C@@H]1NC(=O)[C@H]([C@@H](C)O)NC(=O)CNC(=O)[C@H](Cc2c[nH]cn2)NC(=O)[C@H](Cc2c[nH]c3ccccc23)NC(=O)[C@H](CC(N)=O)NC(=O)CNC(=O)C[C@@H](C(=O)N[C@@H](Cc2c[nH]c3ccccc23)C(=O)N[C@@H](Cc2ccccc2)C(=O)N[C@@H](Cc2ccccc2)C(=O)N[C@@H](CC(N)=O)C(=O)N[C@@H](Cc2ccc(O)cc2)C(=O)N[C@@H](Cc2ccc(O)cc2)C(=O)N[C@@H](Cc2c[nH]c3ccccc23)C(=O)O)NC(=O)[C@@H]2CCCN2C1=O (stereo in doubt; 1) | > 5 | 0.01
5 | CC(=O)N[C@H](C(=O)N[C@@H](Cc1ccccc1)C(=O)N[C@@H](CC(N)=O)C(=O)N[C@@H](Cc1ccc(O)cc1)C(=O)N[C@@H](Cc1ccc(O)cc1)C(=O)N[C@@H](Cc1c[nH]c2ccccc12)C(=O)O)C1c2ccccc2CCc2ccccc21 (Ac-[X1]FNYYW-OH) | 1.9 | 4.3
6 | NC(=O)C[C@H](NC(=O)[C@H](Cc1ccccc1)NC(=O)[C@@H](N)Cc1ccccc1)C(=O)N[C@@H](Cc1ccc(O)cc1)C(=O)N[C@@H](Cc1ccc(O)cc1)C(=O)N[C@@H](Cc1c[nH]c2ccccc12)C(=O)O (H-FFNYYW-OH) | > 25 | > 25
7 | C[C@H](NC(=O)[C@@H](NC(=O)CNC(=O)[C@H](Cc1c[nH]cn1)NC(=O)[C@@H](N)Cc1c[nH]c2ccccc12)[C@@H](C)O)C(=O)N1CCC[C@H]1C(=O)N[C@@H](CC(=O)O)C(=O)N[C@@H](Cc1c[nH]c2ccccc12)C(=O)N[C@@H](Cc1ccccc1)C(=O)N[C@@H](Cc1ccccc1)C(=O)N[C@@H](CC(N)=O)C(=O)N[C@@H](Cc1ccc(O)cc1)C(=O)N[C@@H](Cc1ccc(O)cc1)C(=O)N[C@@H](Cc1c[nH]c2ccccc12)C(=O)O (H-WHGTAPDWFFNYYW-OH) | > 2.5 | > 2.5
8 | NC(=O)C[C@H](NC(=O)[C@H](Cc1ccccc1)NC(=O)[C@@H](N)C1c2ccccc2CCc2ccccc21)C(=O)N[C@@H](Cc1ccc(O)cc1)C(=O)N[C@@H](Cc1ccc(O)cc1)C(=O)N[C@@H](Cc1c[nH]c2ccccc12)C(=O)O (H-[X1]FNYYW-OH) | 9.5 | 13
9 | CC(=O)N[C@@H](Cc1c[nH]c2ccccc12)C(=O)N[C@@H](Cc1ccccc1)C(=O)N[C@@H](Cc1ccccc1)C(=O)N[C@@H](CC(N)=O)C(=O)N[C@@H](Cc1ccc(O)cc1)C(=O)N[C@@H](Cc1ccc(O)cc1)C(=O)N[C@@H](Cc1c[nH]c2ccccc12)C(=O)O | 0.25 | 7.6
10 | CC(=O)N[C@H](Cc1c[nH]c2ccccc12)C(=O)N[C@@H](Cc1ccccc1)C(=O)N[C@@H](Cc1ccccc1)C(=O)N[C@@H](CC(N)=O)C(=O)N[C@@H](Cc1ccc(O)cc1)C(=O)N[C@@H](Cc1ccc(O)cc1)C(=O)N[C@@H](Cc1c[nH]c2ccccc12)C(=O)O | 8.1 | 14
